From US20250066389A1, “HETEROCYCLIC AMIDES AND METHODS OF USING THE SAME” (Rgenta Therapeutics, Inc., priority 2021, published 2025)
Where a name gives a salt, the structure may show the parent alone.

Test system: PMS1
Assay: Mini-Gene Reporter Assay—PMS1 (firefly luciferase mini-gene reporter transiently transfected into HEK293 cells)
Type: cell-based
Settings: Homo sapiens, mini-gene firefly luciferase reporter in HEK293 cells; for activation at 5 µM: read-out: PMS1 % Effect at 5 uM
From the text: Example 76. Mini-Gene Reporter Assay—PMS1
Mini-gene reporter constructs for each target site can be constructed by first PCR amplifying the region-of-interest including the sequence of the alternatively skipped, sequences of the immediate upstream and downstream introns, and sequences of the immediate upstream and downstream exons. Then the 3′ end of the amplified sequence can be ligated to a firefly luciferase reporter gene and cloned into the pcDNA3.1 vector backbone. The final reporter construct can be transiently transfected into HEK293 cells using Lipofectamine 3000 transfection reagents. Compounds that can induce the inclusion of the skipped exon in the reporter construct would increase the reporter firefly luciferase activity.
Test compounds may be diluted in duplicates and dispensed into an assay plate. Transient mini-gene reporter cell line stock is resuspended and dispensed into the assay plate. Assay plates are then centrifuged and incubated. A luciferase reagent (e.g. ONE-Glo firefly luciferase reagent from Promega®) may be added to the assay plate and the luminescence (RLU) signals recorded. EC50 values may be determined by curve fitting in Levenberg-Marquardt algorithm.
In Table D below, A indicates a IC50 (μM)<1 μM, B indicates a IC50 (μM) 1 μM to <10 μM, and C indicates a IC50 (μM) 10 μM to <50 μM. In Table D below, A indicates a >75% Effect at 5 μM μM. B indicates a 50 to <75% Effect at 5 μM μM, and C indicates a <50% Effect at 5 μM.

IC50	SMILES	activation at 5 µM
	CCOc1cc2nn(C)cc2cc1C(=O)Nc1cnc(N[C@@H]2CNC[C@H](F)C2)nc1 [Compound 380]	< 50%
< 1000 nM	CCOc1cc2nc(C)cn2cc1C(=O)Nc1ccc(N2CCC(CNC)C2)nn1 (centres unmarked) [Compound 266]	
< 1000 nM	CCOc1nc2nn(C)cc2cc1C(=O)Nc1ccc(N2CCNCC2)nn1 [Compound 715, 6-ethoxy-2-methyl-N-(6-(piperazin-1-yl)pyridazin-3-yl)-2H-pyrazolo[3,4-b]pyridine-5-carboxamide]	
	CCOc1cc2nn(C)cc2cc1C(=O)Nc1cnc(NC2CCNCC2F)cn1 (centres unmarked) [Compound 355]	> 75%
	CCOc1cc2nn(C)cc2cc1C(=O)Nc1cnc(NCCC2CCCCN2)cn1 (centres unmarked) [Compound 358]	50 to 75%
	CCOc1cc2nc(C)cn2cc1C(=O)Nc1cnc(N2C[C@@H](F)C[C@H]2CN)cn1 [Compound 672]	50 to 75%
	CCOc1cn2nc(C)cc2cc1C(=O)Nc1cnc(NC[C@@H]2CC(F)(F)CN2)cn1 [Compound 532]	< 50%
	CCOc1cc2nn(C)cc2cc1C(=O)Nc1cnc(NCC23CC(N)(C2)C3)nc1 [Compound 406]	< 50%
	CCOc1cc2nn(C)cc2cc1C(=O)Nc1cnc(N(C)C2CCNCC2)nc1 [Compound 478]	50 to 75%
1000 to 10000 nM	COc1cc2nc(C)cn2cc1C(=O)Nc1ccc(N2CCNCC2)nc1 [Compound 119, 7-methoxy-2-methyl-N-[6-(piperazin-1-yl)pyridin-3-yl]imidazo[1,2-a]pyridine-6-carboxamide]	
	COc1cc2nc(C)cn2cc1C(=O)Nc1ccc(N2CCNCC(O)C2)cc1F (centres unmarked) [Compound 153, N-(2-fluoro-4-(6-hydroxy-1,4-diazepan-1-yl)phenyl)-7-methoxy-2-methylimidazo[1,2-a]pyridine-6-carboxamide]	< 50%
1000 to 10000 nM	CCOc1cc2nc(C)cn2cc1C(=O)Nc1ccc(N2CCNCC2C)nn1 (centres unmarked) [Compound 291]	
	CCNCC1CCN(c2cnc(NC(=O)c3cn4cc(C)nc4cc3OCC)cn2)CC1 [Compound 687]	> 75%
1000 to 10000 nM	CCOc1cc2nn(C)cc2cc1C(=O)Nc1cc(C)c(N2CCN[C@@H](C)C2)nn1 [Compound 222, (S)-6-ethoxy-2-methyl-N-(5-methyl-6-(3-methylpiperazin-1-yl)pyridazin-3-yl)-2H-indazole-5-carboxamide hydrochloride]	
	CCOc1cn2nc(C)cc2cc1C(=O)Nc1cnc(N2CCC(CCN3CCNCC3)CC2)nc1 [Compound 607]	< 50%
	CCOc1cc2nn(C)cc2cc1C(=O)Nc1cnc(N[C@@H]2CNC[C@@H](OC)C2)cn1 [Compound 306]	< 50%
	CCOc1cn2nc(C)cc2cc1C(=O)Nc1cnc(N(C)CC2CCNC2)cn1 (centres unmarked) [Compound 538]	50 to 75%
	CCOc1cc2nn(C)cc2cc1C(=O)Nc1cnc(NC[C@H]2CCCN2)nc1 [Compound 475]	< 50%
	CCOc1cc2nn(C)cc2cc1C(=O)Nc1cnc(NCC[C@H]2C[C@H](N)C2)nc1 [Compound 384]	< 50%
1000 to 10000 nM	CCOc1cc2nc(C)cn2cc1C(=O)Nc1ccc(N2CCN(CC3CCNCC3)CC2)nn1 [Compound 259]	
	CCOc1cn2nc(C)cc2cc1C(=O)Nc1cnc(N(C)C[C@@H]2CCCN2)nc1 [Compound 576]	< 50%
	CNC1CCN(c2ccc(NC(=O)c3cn4cc(C)nc4cc3OC)c(F)c2)CC1 [Compound 164, N-(2-fluoro-4-(4-(methylamino)piperidin-1-yl)phenyl)-7-methoxy-2-methylimidazo[1,2-a]pyridine-6-carboxamide]	> 75%
< 1000 nM	CCOc1cc2nn(C)cc2cc1C(=O)Nc1cnc(N2C[C@@H](C)N[C@@H](C)C2)cn1 [Compound 720, N-(5-((3R,5S)-3,5-dimethylpiperazin-1-yl)pyrazin-2-yl)-6-ethoxy-2-methyl-2H-indazole-5-carboxamide hydrochloride]	
< 1000 nM	CCOc1cc2nc(C)cn2cc1C(=O)Nc1cnc(N2C[C@@H](C)N[C@@H](C)C2)cn1 [Compound 719, N-(5-((3S,5R)-3,5-dimethylpiperazin-1-yl)pyrazin-2-yl)-7-ethoxy-2-methylimidazo[1,2-a]pyridine-6-carboxamide]	
	CCOc1cc2nc(C)cn2cc1C(=O)Nc1cnc(N2CCCNCC2)nc1 [Compound 653]	< 50%
	CCOc1cc2nn(C)cc2cc1C(=O)Nc1cnc(NCC2(C)CCNC2)nc1 (centres unmarked) [Compound 439]	< 50%

IC50	SMILES	activation at 5 µM
	CCOc1cc2nc(C)cn2cc1C(=O)Nc1cnc(N2CCC(N)(CC)CC2)nc1 [Compound 639]	> 75%
	Cc1cn2cc(C(=O)Nc3ccc(N4CCN[C@H](C)C4)nc3)ncc2n1 [Compound 104, hydrochloride]	< 50%
	CCOc1cn2nc(C)cc2cc1C(=O)Nc1cnc(N2CCOC3(CCNCC3)C2)nc1 [Compound 587]	< 50%
1000 to 10000 nM	CCOc1cc2nc(C)cn2cc1C(=O)Nc1ccc(N2CCC3(CCNC3)C2)nn1 (centres unmarked) [Compound 286]	
	CCOc1cn2nc(C)cc2cc1C(=O)Nc1cnc(N2CC(N)C(C)(C)C2)nc1 (centres unmarked) [Compound 571]	< 50%
	CCOc1cc2nn(C)cc2cc1C(=O)Nc1cnc(NC2CNCC2(C)C)nc1 (centres unmarked) [Compound 407]	< 50%
1000 to 10000 nM	CCOc1cc2nc(C)cn2cc1C(=O)Nc1cc(C)c(N2CCN[C@@H](C)C2)nn1 [Compound 741, (S)-7-ethoxy-2-methyl-N-(5-methyl-6-(3-methylpiperazin-1-yl)pyridazin-3-yl)imidazo[1,2-a]pyridine-6-carboxamide formate]	
	CCOc1cc2nc(C)cn2cc1C(=O)Nc1cnc(N(C)C2CCNCC2)nc1 [Compound 649]	50 to 75%
	CCOc1cn2nc(C)cc2cc1C(=O)Nc1cnc(NC2CCCCC23CCNC3)cn1 (centres unmarked) [Compound 494]	< 50%
10000 to 50000 nM	CCOc1cc2nc(C)cn2cc1C(=O)Nc1ccc(N2CCCC3(CCNC3)C2)nn1 (centres unmarked) [Compound 254]	
1000 to 10000 nM	CCOc1cc2nc(C)cn2cc1C(=O)Nc1ccc(N2C[C@@H]3CNC[C@]3(C)C2)nn1 (racemic) [Compound 253]	
	CCOc1cc2nc(C)cn2cc1C(=O)Nc1cnc(N2CC(N)C3(CC3)C2)cn1 (centres unmarked) [Compound 678]	> 75%
	CCOc1cc2nn(C)cc2cc1C(=O)Nc1cnc(NCC2(CN)CCC2)nc1 [Compound 421]	< 50%
	CCOc1cn2nc(C)cc2cc1C(=O)Nc1cnc(N(C)CC2CCCN2)cn1 (centres unmarked) [Compound 534]	50 to 75%
1000 to 10000 nM	CCOc1cc2nc(C)cn2cc1C(=O)Nc1ccc(N2CC[C@@H](NC(C)(C)C)C2)nn1 [Compound 723, (R)—N-(6-(3-(tert-butylamino)pyrrolidin-1-yl)pyridazin-3-yl)-7-ethoxy-2-methylimidazo[1,2-a]pyridine-6-carboxamide]	
< 1000 nM	COc1cc2nc(C)cn2cc1C(=O)Nc1ccc(N2CCNCCC2C)cc1F (centres unmarked) [Compound 158, N-(2-fluoro-4-(7-methyl-1,4-diazepan-1-yl)phenyl)-7-methoxy-2-methylimidazo[1,2-a]pyridine-6-carboxamide]	
	CCOc1cn2nc(C)cc2cc1C(=O)Nc1cnc(N2CCC(N)CC2)nc1 [Compound 597]	< 50%
	CCOc1cn2nc(C)cc2cc1C(=O)Nc1cnc(N2CC3CNCC(C3)C2)cn1 [Compound 533]	< 50%
1000 to 10000 nM	CCOc1cc2nc(C)cn2cc1C(=O)Nc1ccc(N2CC(C3CCNC3)C2)nn1 (centres unmarked) [Compound 227]	
	CCOc1cc2nn(C)cc2cc1C(=O)Nc1cnc(NCC2CCNCC2(F)F)cn1 (centres unmarked) [Compound 335]	< 50%
	CCOc1cn2nc(C)cc2cc1C(=O)Nc1cnc(N2CCCC(CCN)C2)cn1 (centres unmarked) [Compound 544]	< 50%
	CCOc1cn2nc(C)cc2cc1C(=O)Nc1cnc(N(C)C[C@@H]2CCCN2)cn1 [Compound 526]	> 75%
	CCOc1cn2nc(C)cc2cc1C(=O)Nc1cnc(N2CCCC(C)(CN)C2)cn1 (centres unmarked) [Compound 522]	< 50%
	CCOc1cn2nc(C)cc2cc1C(=O)Nc1cnc(N2CCCC2CNC)nc1 (centres unmarked) [Compound 574]	< 50%
	CCOc1cc2nn(C)cc2cc1C(=O)Nc1cnc(N2CCC(N)(CC)CC2)nc1 [Compound 410]	> 75%

SMILES	IC50	activation at 5 µM
CCOc1cc2nc(C)cn2cc1C(=O)Nc1ccc(N(C)C2CCNCC2)nn1 [Compound 292]	1000 to 10000 nM	
Cc1cn2cc(C(=O)Nc3ccc(N4CCNC(C)(C)C4)nn3)c(OC3CCC3)cc2n1 [Compound 219, 7-cyclobutoxy-N-(6-(3,3-dimethylpiperazin-1-yl)pyridazin-3-yl)-2-methylimidazo[1,2-a]pyridine-6-carboxamide]	< 1000 nM	
COc1cc2nc(C)cn2cc1C(=O)Nc1ccc(C2CCNCC2)cn1 [Compound 735, 7-methoxy-2-methyl-N-(5-(piperidin-4-yl)pyridin-2-yl) imidazo[1,2-a]pyridine-6-carboxamide hydrochloride]	1000 to 10000 nM	
Cc1cn2cc(C(=O)Nc3ccc(N4CCNCC4)cn3)c(OC3CCC3)cc2n1 [Compound 128, 7-cyclobutoxy-2-methyl-N-(5-(piperazin-1-yl)pyridin-2-yl) imidazo[1,2-a]pyridine-6-carboxamide hydrochloride]	< 1000 nM	
CCOc1cc2nc(C)cn2cc1C(=O)Nc1ccc(N2C3CCC2CC(NC)C3)nn1 (centres unmarked) [Compound 247]	1000 to 10000 nM	
